Read-outs that look alike come from different tables or passages of the source.
Tests used:
[1] = system: anesthetized open-chest rats (LCA occlusion/reperfusion); assay: Neutrophil (PMN) accumulation (myeloperoxidase activity) in the area at risk, rat LCA occlusion/reperfusion; type: in vivo; details: postconditioning + antagonist, postconditioning 1.0±0.2, Control 2.2±0.4
Method: Adenosine is a mediator of the cardioprotection of postconditioning. Isolated-perfused mouse hearts were subjected to 20 min global ischemia (I) and 30 min reperfusion (R) with or without Postcon (6 cycles of 10 sec. R & occlusion). Intravascular purines in coronary effluent were analyzed by HPLC. To determine whether endogenous adenosine played a physiological role in postconditioning, the left coronary artery (LCA) was occluded for 30 min and reperfused for 3 hours in anesthetized open-chest rats. The rats were randomly divided into six groups (n=8 each): Control (no intervention); postconditioning (3 cycles of 10-s R followed by 10-s LCA I before 3 hours R); 8-SPT (subtype non-selective adenosine receptor antagonist, 10 mg/kg), or ZW241385 (A2a receptor antagonist, 0.2 mg/kg), was given 5 min before R with or without postconditioning. In mouse hearts, postconditioning decreased effluent [adenosine] at 2 min R (58±5* vs 155±16 nM/min/g), and improved contractile function (LV developed pressure 32±7* vs 16±2 mmHg) and end-diastolic pressure (27±3* vs 36±3 mmHg) at 5 min R which persisted at 30 min R. In in vivo rats, postconditioning reduced infarct size (TTC) vs the control group (40±3.1%* vs 52±2.2%). 8-SPT (51±2.5%) or ZM241385 alone (50±2.1%) without postconditioning had no effect on infarct size. […]

[2] = system: anesthetized open-chest rats (LCA occlusion/reperfusion); assay: Anesthetized open-chest rats: LCA occlusion 30 min, reperfusion 3 h; infarct size (TTC) with adenosine receptor antagonists with or without postconditioning; type: in vivo; details: rat
Method: Adenosine is a mediator of the cardioprotection of postconditioning. Isolated-perfused mouse hearts were subjected to 20 min global ischemia (I) and 30 min reperfusion (R) with or without Postcon (6 cycles of 10 sec. R & occlusion). Intravascular purines in coronary effluent were analyzed by HPLC. To determine whether endogenous adenosine played a physiological role in postconditioning, the left coronary artery (LCA) was occluded for 30 min and reperfused for 3 hours in anesthetized open-chest rats. The rats were randomly divided into six groups (n=8 each): Control (no intervention); postconditioning (3 cycles of 10-s R followed by 10-s LCA I before 3 hours R); 8-SPT (subtype non-selective adenosine receptor antagonist, 10 mg/kg), or ZW241385 (A2a receptor antagonist, 0.2 mg/kg), was given 5 min before R with or without postconditioning. In mouse hearts, postconditioning decreased effluent [adenosine] at 2 min R (58±5* vs 155±16 nM/min/g), and improved contractile function (LV developed pressure 32±7* vs 16±2 mmHg) and end-diastolic pressure (27±3* vs 36±3 mmHg) at 5 min R which persisted at 30 min R. In in vivo rats, postconditioning reduced infarct size (TTC) vs the control group (40±3.1%* vs 52±2.2%). 8-SPT (51±2.5%) or ZM241385 alone (50±2.1%) without postconditioning had no effect on infarct size. The infarct-sparing effect of postconditioning was abrogated by 8-SPT and ZM241385 (50±1.8% and 49±2.6%). Neutrophil (PMN) accumulation (myeloperoxidase activity) in the area at risk was less in postconditioning vs Control (1.0±0.2* vs 2.2±0.4 U/100 g protein); adenosine receptor antagonists blocked the reduction of PMN accumulation in postconditioning (postconditioning+8-SPT 2.1±0.2; postconditioning+ZM241385 1.6+0.2).

[3] = system: rat model of myocardial infarction; assay: Rat model of myocardial infarction: LCA occlusion 30 min, reperfusion 3 h; infarct size with cariporide with or without postconditioning; type: in vivo
Method: Cross-hatched bar=time when the sodium-hydrogen exchange inhibitor (NHE-1), cariporide is administered intravenously. Vertical hatched bar=postconditioning algorithm. Control (n=8); occlusion of the left coronary artery (LCA) for 30 min (dark bar), was followed by 3 h of reperfusion (open bar). Post-con (n=8); 10 of full reperfusion (R, open bar) and 10 s of re-occlusion ischemia (I, dark bar) were repeated for three cycles. NHE(1) (n=8); cariporide (1 mg/kg) was injected 5 min prior to reperfusion, followed by unbridled R. NHE(1)+Post-con (n=8); cariporide followed by Post-con. Delay (D)-NHE(1) (n=8); cariporide was injected for 5 min after 1 min of full unbridled reperfusion. Post-con+D-NHE(1) (n=8); Post-con followed by injecting cariporide for 5 min. […] Infarct size is expressed as a percentage of AN and AAR. In all groups, infarct size decreased compared to that of Control. […] Post-con=postconditioning. Values are means ±SEM. Postconditioning can be enhanced by pharmacological means which capture the protective actions of the proximal mediators such as adenosine and opioids. In a rat model of myocardial infarction, it can be shown that the dual approach of attenuating reperfusion injury by applying postconditioning in the presence of a sodium-hydrogen exchange (NHE-1) inhibitor during early reperfusion achieves greater infarct size reduction than either intervention alone. Specifically, in an anesthetized rat model, the left coronary artery (LCA) was occluded for 30 min of ischemia (I) and reperfused for 3 hours. Rats were randomly divided into six groups (n=8 each) (FIG. 10): Control: no intervention at reperfusion; Postconditioning: three cycles of 10-s reperfusion followed by 10-s re-occlusion were applied during the first minute of reperfusion; NHE(1): cariporide (1 mg/kg) was infused 5 min before reperfusion, with or without postconditioning; Delayed (D)-NHE(1): a 5-minute infusion of cariporide was begun 1 min after onset of reperfusion equivalent to postconditioning period; Post-con+D-NHE(1): Completion of postconditioning was followed immediately by cariporide infusion for 5 min. […] When NHE(1) preceded postconditioning as a reperfusion intervention, infarct size was not further reduced (45±2%*) compared to either intervention alone. However, an additive reduction in infarct size was achieved when postconditioning preceded NHE(1) inhibitor at reperfusion (Post-con+D-N-HE(1), 34±2%). Thus, infarct size reduction by postconditioning is enhanced by NHE inhibition at reperfusion when postconditioning precedes cariporide administration.

[4] = system: rabbit model of myocardial infarction; details: cited from earlier work
[5] = antagonist alone, given 5 min before reperfusion, without postconditioning, control 52±2.2%
[6] = antagonist given 5 min before reperfusion, with postconditioning, postconditioning alone 40±3.1%

SMILES: Cn1c(=O)c2[nH]c(-c3ccc(S(=O)(=O)O)cc3)nc2n(C)c1=O [8-SPT]
- neutrophil (PMN) accumulation (myeloperoxidase activity) in the area at risk [1]: 2.1±0.2 U/100 g protein
- infarct size (TTC) [2, 5]: 51±2.5%
- infarct size (TTC) [2, 6]: 50±1.8%

SMILES: Nc1nc(NCCc2ccc(O)cc2)nc2nc(-c3ccco3)nn12 [ZM241385]
- neutrophil (PMN) accumulation (myeloperoxidase activity) in the area at risk [1]: 1.6+0.2 U/100 g protein
- infarct size (TTC) [2, 5]: 50±2.1%
- infarct size (TTC) [2, 6]: 49±2.6%

SMILES: CC(C)c1ccc(C(=O)NC(=N)N)cc1S(C)(=O)=O [cariporide]
- infarct size (AN as percentage of AAR) ([3]; NHE(1) alone: cariporide 1 mg/kg infused 5 min before reperfusion, no postconditioning): 43±2%
- infarct size (AN as percentage of AAR) ([3]; NHE(1)+Post-con: cariporide 1 mg/kg 5 min before reperfusion, followed by postconditioning): 45±2%
- decrease in infarct size compared with postconditioning alone ([3]; Post-con+D-NHE(1) group, FIG. 11): significantly greater than postconditioning alone
- infarct size (AN as percentage of AAR) ([3]; Post-con+D-NHE(1): postconditioning followed immediately by 5 min cariporide infusion): 34±2%

SMILES: FC(F)OC(Cl)C(F)(F)F (stereo not shown) [isoflurane]
- infarct size ([4]; 0.5 minimum alveolar concentration isoflurane alone, control 41±2%): 43±3 % of the left ventricular area at risk
- infarct size ([4]; 1.0 minimum alveolar concentration isoflurane alone, control 41±2%): 21±2 % of the left ventricular area at risk
- infarct size ([4]; combined postconditioning (10 s) and 0.5 minimum alveolar concentration isoflurane): 17±5 % of the left ventricular area at risk
